Molecules are shown by their SMILES.

The target of the assay is T1, human S1P1 receptor (Homo sapiens, UniProt P21453).
T1 construct: expressed in transfected cells; membranes were used
The experiment in a line: GTP γ35S binding assay for S1P1 activity. The format is biochemical. To be noted: membranes of cells stably expressing the S1P1 receptor, agonist potency. Here is the method:
Compounds were synthesized and tested for S1P1 activity using the GTP γ^35S binding assay. These compounds may be assessed for their ability to activate or block activation of the human S1P1 receptor in cells stably expressing the S1P1 receptor.
GTP γ^35S binding was measured in the medium containing (mM) HEPES 25, pH 7.4, MgCl2 10, NaCl 100, dithiothreitol 0.5, digitonin 0.003%, 0.2 nM GTP γ^35S, and 5 μg membrane protein in a volume of 150 μl. Test compounds were included in the concentration range from 0.08 to 5,000 nM unless indicated otherwise. Membranes were incubated with 100 μM 5′-adenylylimidodiphosphate for 30 min, and subsequently with 10 μM GDP for 10 min on ice. Drug solutions and membrane were mixed, and then reactions were initiated by adding GTP γ^35S and continued for 30 min at 25° C. Reaction mixtures were filtered over Whatman GF/B filters under vacuum, and washed three times with 3 mL of ice-cold buffer (HEPES 25, pH7.4, MgCl2 10 and NaCl 100). Filters were dried and mixed with scintillant, and counted for ^35S activity using a β-counter. Agonist-induced GTP γ^35S binding was obtained by subtracting that in the absence of agonist. Binding data were analyzed using a non-linear regression method. In case of antagonist assay, the reaction mixture contained 10 nM […] in the presence of test antagonist at concentrations ranging from 0.08 to 5000 nM.
Background: Binding of GTPγS marks nucleotide exchange on a G protein.

T1 sequence (P21453 whole entry): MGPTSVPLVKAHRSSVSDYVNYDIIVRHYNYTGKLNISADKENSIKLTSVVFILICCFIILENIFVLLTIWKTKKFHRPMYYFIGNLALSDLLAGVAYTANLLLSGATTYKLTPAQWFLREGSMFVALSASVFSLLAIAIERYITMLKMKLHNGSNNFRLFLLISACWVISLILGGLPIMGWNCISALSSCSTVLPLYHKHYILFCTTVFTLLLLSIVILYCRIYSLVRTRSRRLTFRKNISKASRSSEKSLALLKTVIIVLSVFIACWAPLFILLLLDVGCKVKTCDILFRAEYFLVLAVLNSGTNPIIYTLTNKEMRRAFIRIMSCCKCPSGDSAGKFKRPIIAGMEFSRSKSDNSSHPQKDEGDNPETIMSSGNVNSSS

Regarding `O=C(O)C1CN(CCCCCCCCC(Cc2ccccc2)c2cccc(Cl)c2)C1` (stereo not shown) [Compound 1, 1-[9-(3-Chlorophenyl)-10-phenyldecyl]azetidine-3-carboxylic acid], it took 129 nM to reach a half-maximal effect (EC50).

In the case of `Cc1ccc(CC(CCCCCCCN2CC(C(=O)O)C2)c2cc(F)cc(F)c2)cc1C` (stereo not shown) [Compound 2, 1-[8-(3,5-Difluorophenyl)-9-(3,4-dimethylphenyl)nonyl]azetidine-3-carboxylic acid], a half-maximal effect (EC50) was put at 61.4 nM.

On to `Cc1ccc(CC(CCCCCCN2CC(C(=O)O)C2)c2cccc(Cl)c2)cc1C` (stereo not shown) [Compound 3, 1-[7-(3-Chlorophenyl)-8-(3,4-dimethylphenyl)octyl]azetidine-3-carboxylic acid], for which the EC50 – broadly, the concentration that produces a half-maximal response – turned out to be 801 nM.

`Cc1ccc(CC(CCCCCCCN2CC(C(=O)O)C2)c2cccc(Cl)c2)cc1C` (stereo not shown) [Compound 4, 1-[8-(3-Chlorophenyl)-9-(3,4-dimethylphenyl)nonyl]azetidine-3-carboxylic acid] came in with a concentration for a half-maximal effect (EC50) of 644 nM.
